# Earlier results, collected in patent US7683052B2, “Crystalline polymorph of bazedoxifene acetate” (Wyeth, priority 2004, dated 2010).
# Key:
# uterine response = settings: preclinical models of uterine stimulation
# ovariectomized rat = ovariectomized rat model of osteopenia
# [1] = system: MCF-7 cell line (human breast cancer cell line); settings: MCF-7 human breast cancer cell line
structure (smiles),measurement,setting,value
"Cc1c(-c2ccc(O)cc2)n(Cc2ccc(OCCN3CCCCCC3)cc2)c2ccc(O)cc12 [bazedoxifene acetate, 1-[4-(2-azepan-1-yl-ethoxy)-benzyl]-2-(4-hydroxy-phenyl)-3-methyl-1H-indol-5-ol acetic acid]",Stimulation of uterine response,uterine response,little or no stimulation of uterine response
same,Effect on bone loss and cholesterol,ovariectomized rat,estrogen agonist-like effect in preventing bone loss and reducing cholesterol
same,Estrogen agonist/antagonist behaviour in MCF-7 cells,[1],behaves as an estrogen antagonist
